Patent publication US5760036A, “Aminediol protease inhibitors” (E. R. Squibb & Sons, Inc., priority 1995, dated 1998)
Structures can show the parent of a compound that is named as a salt.

How the values were obtained:
[1] = target: T1, HIV protease (Human immunodeficiency virus type 1 group M subtype B, UniProt P04585); assay: HIV Protease Assay; type: biochemical; conditions: 4% DMSO, 450 μM substrate, pH 5.5, 30 minutes at 37° C., RP-HPLC; for inhibition at 10 µM: pH 5.5, 10 μM inhibitor, read-out: HIV Protease % Inhibition at 10 μM
T1 construct: and purified protease
How it was run: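 At a single final concentration of 10 μM (4% DMSO), inhibitors were added to a 30-minute, 37° C reaction of purified enzyme with 450 μM H2N-Val-Ser-Gln-Asn-(β-naphthyl-alanine)-Pro-Val-Ile-OH at pH 5.5 (sodium acetate, BSA). Hydrolysis was quantified by reverse-phase HPLC with 220 nm detection after acid quench.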

[2] = tested on: RF strain of HIV (CEM-SS cells); assay: Cell Culture Anti-HIV Activity (cell viability, formazan); type: cell-based; conditions: Human immunodeficiency virus 1, CEM-SS, 144 h, CEM-SS cells, RF strain of HIV, multiplicity of infection 0.04, 6 days at 37° C., 450 nm; read-out: HIV (CEM Cells) IC50
Description: The antiviral activity of aminediol inhibitors of the present invention was evaluated by a microculture method which determines the increase in cell viability of an infected culture when a drug is added. The assay depends on the metabolic reduction of tetrazolium reagent by viable cells to yield a soluble colored formazan product.
The assay was performed as follows: suspensions of CEM-SS cells (5000/well) were infected with the RF strain of HIV at a multiplicity of infection at 0.04 in a 96-well plate. The compounds of the present invention listed in the following Table 1, serially diluted in half-log fashion, were added to the infected and uninfected control cells. Untreated (infected and uninfected) cells were included as controls. Following incubation for 6 days at 37° C., viable cells in each well were quantitated by the visible light absorbance at 450 nm.
The IC50 was calculated as the concentration of drug that increased the formazan production in virally infected cells to 50% of that produced by uninfected cells in the absence of drug.

SMILES | inhibition at 10 µM [1] [%] | HIV Protease % Inhibition at 10 μM ([1]; 10 μM inhibitor) [%] | IC50 [2] [nM]
CC(C)(C)OC(=O)N[C@@H](Cc1ccccc1)[C@H](O)CNC[C@@H](O)[C@H](Cc1cccc(OCc2ccccc2)c1)NC(=O)OC(C)(C)C [Compound 28, [1S-[1R*,2S*(2S*,3R*)]]-[3-[[3-[[(1,1-Dimethylethoxy)-carbonyl]amino]-2-hydroxy-4-phenylbutyl]amino]-2-hydroxy-1-[[3-(phenylmethoxy)phenyl]methyl]propyl]carbamic acid, 1,1-dimethylethyl ester] | 100 |  | 90
CC(C)[C@H](NC(=O)OCc1ccccc1)C(=O)N[C@@H](Cc1ccccc1)[C@H](O)CNC[C@@H](O)[C@H](Cc1ccccc1)NC(=O)[C@H](CC(N)=O)NC(=O)OCc1ccccc1 [Compound 112, [S-[1R*,2S*(2S*,3R*)]]-N-[2-Hydroxy-3-[[2-hydroxy-4-phenyl-3-[[N-[(phenyl-methoxy)carbonyl]-L-valyl]amino]butyl]amino]-1-(phenylmethyl)propyl]-N^2-[(phenylmethoxy)-carbonyl]-L-asparaginamide, monohydrochloride] | 100 |  | > 8600
CC(C)(C)OC(=O)N[C@@H](Cc1ccccc1)[C@H](O)CNC[C@@H](O)[C@H](Cc1ccc(OCCN2CCOCC2)cc1)NC(=O)OC(C)(C)C [Compound 175, [1S-[1R*,2S*(2S*,3R*)]]-[3-[[3-[[(1,1-Dimethylethoxy)carbonyl]amino]-2-hydroxy-4-(4-[2-(4-morpholinyl)ethoxyl-phenyl]butyl]amino]-2-hydroxy-1-(phenylmethyl)propyl]carbamic acid, 1,1-dimethylethyl ester] | 99 |  | 30
CC(C)(C)OC(=O)N[C@@H](Cc1ccccc1)[C@H](O)CNC[C@@H](O)[C@H](Cc1ccccc1)NC(=O)OC[C@@H](O)CO [Compound 230, [1S-(1R*,2S*),(R*)]-[Iminobis[2-hydroxy-1-(phenylmethyl)-3,1-propanediyl]]biscarbamic acid, 2,3-dihydroxypropyl 1,1-dimethylethyl ester] | 92 |  | 4900
CC(C)(C)OC(=O)N[C@@H](Cc1ccccc1)[C@H](O)CNC[C@@H](O)[C@H](Cc1ccccc1)NC(=O)OC1CCS(=O)(=O)C1 (stereo partly drawn) [Compound 360, [1S-(1R*,2S*)]-[Iminobis[2-hydroxy-1-(phenylmethyl)-3,1-propanediyl)]bis[carbamic acid], 1,1-dimethylethyl tetrahydro-1,1-dioxo-3-thienyl ester] | 96 |  | 450
CC(C)(C)NC(=O)N[C@@H](Cc1ccccc1)[C@H](O)CNC[C@@H](O)[C@H](Cc1ccccc1)NC(=O)OC(C)(C)C [Compound 50, [1S-[1R*,2S*(2S*,3R*)]]-[3-[[3-[[[(1,1-Dimethylethyl)amino]carbonyl]amino]-2-hydroxy-4-phenylbutyl]amino]-2-hydroxy-1-(phenylmethyl)propyl]carbamic acid, 1,1-dimethylethyl ester] | 97 |  | 220
CC(C)(C)OC(=O)N[C@@H](Cc1ccccc1)[C@H](O)CNC[C@@H](O)[C@H](Cc1ccccc1)NC(=O)C1(NC(=O)OCc2ccccc2)CCCC1 [Compound 87, [1S-[1R*,2S*(2S*,3R*)]]-[2-Hydroxy3-[[2-hydroxy-3-[[[1-[[(phenylmethoxy)-carbonyl]amino]cycloyentyl]carbonyl]amino]-4-phenylbutyl]-amino]-1-(phenylmethyl)propoyl]carbamic acid, 1,1-dimethylethyl ester] | 92 |  | > 880

Now from value to compound, other results behind:

inhibition at 10 µM [1] [%] | HIV Protease % Inhibition at 10 μM ([1]; 10 μM inhibitor) [%] | SMILES | IC50 [2] [nM]
99 |  | CC(C)(C)OC(=O)N[C@@H](Cc1ccccc1)[C@H](O)CNC[C@@H](O)[C@H](Cc1ccccc1)NC(=O)[C@@H](NC(=O)OCCOc1ccccc1)C(C)(C)C [Compound 326, [S-[1R*,2S*(2S*,3R*)]]-[2,2-Dimethyl-1-[[[3-[[3-[[(1,1-dimethylethoxy)carbonyl]amino]-2-hydroxy-4-phenylbutyl]amino]-2-hydroxy-1-(phenylmethyl)propyl]amino]carbonyl]propyl]carbamic acid, (2-(phenyloxy)ethyl ester] | 30
 | 88 | CC(C)(C)OC(=O)N[C@@H](Cc1ccccc1)[C@H](O)CNC[C@@H](O)[C@H](Cc1ccccc1)NC(=O)OC1c2ccccc2CC1O (stereo partly drawn) [Compound 148, [1S-(1R*, 2S*)]-[Iminobis[2-hydroxy-1-(phenylmethyl)-3,1-propanediyl)]biscarbamic acid, 1,1-dimethylethyl 2,3-dihydro-2-hydroxy-1H-inden-1-yl ester] | 2000
99 |  | CC(C)[C@H](NC(=O)OCc1cc2ccccc2[nH]1)C(=O)N[C@@H](Cc1ccccc1)[C@H](O)CNC[C@@H](O)[C@H](Cc1ccccc1)NC(=O)OC(C)(C)C (relative stereo) [Compound 104, [1R*,2S*(2S*,3R*)]-N-[3-[[3-[[(1,1-dimethylethoxy)carbonyl]amino]-2-hydroxy-4-phenylbutyl]amino]-2-hydroxyl-1-(phenylmethyl)propyl]-N^2-[(1H-indol-2-ylmethoxy)carbonyl]-L-valinamide] | 30
99 |  | CC(C)[C@H](NC(=O)c1nc2ccccc2[nH]1)C(=O)N[C@@H](Cc1ccccc1)[C@H](O)CNC[C@@H](O)[C@H](Cc1ccccc1)NC(=O)OC(C)(C)C [Compound 101, [S-[1R*,2S*(2S*,3R*)]-N-[3-[[3-[[(1,1-Dimethylethoxy)carbonyl]amino]-2-hydroxy-4-phenylbutyl]amino]-2-hydroxy-1-(phenylmethyl)propyl]-N^2-[(1H-benzimidazol-2-yl)-carbonyl]-L-valinamide]] | 140
100 |  | CC(C)[C@H](NC(=O)OCc1ccccn1)C(=O)N[C@@H](Cc1ccccc1)[C@H](O)CNC[C@@H](O)[C@H](Cc1ccccc1)NC(=O)OC(C)(C)C [Compound 70, [S-[1R*,2S*(2S*,3R*)]]-N-[3-[[3-[[(1,1-Dimethylethoxy)carbonyl]amino]-2-hydroxy-4-phenylbutyl]amino]-2-hydroxy-1-(phenylmethyl)-propyl]-N^2-(2-pyridinylmethoxy)carbonyl]-L-valinamide] | 500
100 |  | C[C@H](NC(=O)OCc1nc2ccccc2[nH]1)C(=O)N[C@@H](Cc1ccccc1)[C@H](O)CNC[C@@H](O)[C@H](Cc1ccccc1)NC(=O)OC(C)(C)C (relative stereo) [Compound 220, [1R*,2S*(2S*,3R*)]-N^2-[[(2-Benzimidazolyl)methoxy]carbonyl]-N-[3-[[3-[[(1,1-dimethylethoxy)carbonyl]amino]-2-hydroxy-4-phenylbutyl]amino]-2-hydroxy-1-(phenylmethyl)propyl]-L-alaninamide] | 770
97 |  | CC(C)(C)OC(=O)N[C@@H](Cc1ccccc1)[C@H](O)CNC[C@@H](O)[C@H](Cc1ccccc1)NC(=O)OC(C)(C)CCOCc1ccccc1 [Compound 158, [1S-(1R*,2S*)]-[Iminobis[2-hydroxy-1-(phenylmethyl)-3,1-propanediyl]biscarbamic acid, 1,1-dimethylethyl 1,1-dimethyl-3-(phenylmethoxy)-propyl ester] | > 1800
